Measured values from patent US20230142606A1, “PESTICIDALLY ACTIVE FUSED BICYCLIC HETEROAROMATIC AMINO COMPOUNDS” (SYNGENTA CROP PROTECTION AG, priority 2020, published 2023).

Columns and labels:
Assay type in all cases: in vivo
[1] = test system: Chilo suppressalis (Striped Rice Stemborer); test: Example B3: Chilo suppressalis (striped rice stemborer), artificial diet, L2 larvae; conditions: 144 h, application rate of 200 ppm, pipetting, 6 days after infestation, in comparison to untreated samples, read-out: control (at least one of mortality, anti-feedant effect, growth inhibition)
Method: Example B3: Chilo suppressalis (Striped Rice Stemborer)
24-well microtiter plates with artificial diet were treated with aqueous test solutions prepared from 10′000 ppm DMSO stock solutions by pipetting. After drying, the plates were infested with L2 larvae (6-8 per well). The samples were assessed for mortality, anti-feeding effect, and growth inhibition in comparison to untreated samples 6 days after infestation. Control of Chilo suppressalis by a test sample is given when at least one of the categories mortality, anti-feedant effect, and growth inhibition is higher than the untreated sample.

[2] = test system: Diabrotica Balteata (Corn Root Worm); test: Example B1: Diabrotica balteata (corn root worm), maize sprouts sprayed, L2 larvae; conditions: 96 h, application rate of 200 ppm, 4 days after infestation, in comparison to untreated samples, read-out: effect in at least one of the two categories (mortality or growth inhibition)
Method: Example B1: Diabrotica Balteata (Corn Root Worm)
Maize sprouts placed onto an agar layer in 24-well microtiter plates were treated with aqueous test solutions prepared from 10′000 ppm DMSO stock solutions by spraying. After drying, the plates were infested with L2 larvae (6 to 10 per well). The samples were assessed for mortality and growth inhibition in comparison to untreated samples 4 days after infestation.
The following compounds gave an effect of at least 80% in at least one of the two categories (mortality or growth inhibition) at an application rate of 200 ppm: […]

[3] = test system: Plutella xylostella (Diamond Back Moth); test: Example B4: Plutella xylostella (diamond back moth), 24-well artificial diet, eggs; conditions: 192 h, application rate of 200 ppm, pipetting, 8 days after infestation, in comparison to untreated samples, read-out: effect in at least one of the two categories (mortality or growth inhibition)
Method: Example B4: Plutella xylostella (Diamond Back Moth)
24-well microtiter plates with artificial diet were treated with aqueous test solutions prepared from 10′000 ppm DMSO stock solutions by pipetting. After drying, Plutella eggs were pipetted through a plastic stencil onto a gel blotting paper and the plate was closed with it. The samples were assessed for mortality and growth inhibition in comparison to untreated samples 8 days after infestation. The following compounds gave an effect of at least 80% in at least one of the two categories (mortality or growth inhibition) at an application rate of 200 ppm: […]

[4] = test system: Spodoptera littoralis (Egyptian Cotton Leaf Worm); test: Example B5: Spodoptera littoralis (Egyptian cotton leaf worm), cotton leaf discs sprayed, L1 larvae; conditions: foliar, 72 h, application rate of 200 ppm, 3 days after infestation, in comparison to untreated samples, read-out: control (at least one of mortality, anti-feedant effect, growth inhibition)
Method: Example B5: Spodoptera littoralis (Egyptian Cotton Leaf Worm)
Cotton leaf discs were placed onto agar in 24-well microtiter plates and sprayed with aqueous test solutions prepared from 10′000 ppm DMSO stock solutions. After drying the leaf discs were infested with five L1 larvae. The samples were assessed for mortality, anti-feeding effect, and growth inhibition in comparison to untreated samples 3 days after infestation. Control of Spodoptera littoralis by a test sample is given when at least one of the categories mortality, anti-feedant effect, and growth inhibition is higher than the untreated sample.

[5] = test system: Plutella xylostella (Diamondback Moth); test: Example B7: Plutella xylostella (diamondback moth), 96-well artificial diet, eggs; conditions: 216 h, application rate of 500 ppm, eggs (~30 per well), 9 days after infestation, read-out: control (samples assessed for mortality)
Method: Example B7: Plutella xylostella (Diamondback Moth)
96-well microtiter plates containing artificial diet were treated with aqueous test solutions, prepared from 10′000 ppm DMSO stock solutions, by a liquid handling robot. After drying, eggs (˜30 per well) were infested onto a netted lid which was suspended above the diet. The eggs hatch and L1 larvae move down to the diet. The samples were assessed for mortality 9 days after infestation.

C[C@@H](c1ncnn1-c1ccc(C#N)cn1)N(C)c1nnc2c(C(F)(F)F)cc(C(F)(F)F)cn12 [Compound P1, 6-[5-[(lS)-1-[[6.8-bis(trifluoromethyl)-[1,2,4]triazolo[4,3-a]pyridin-3-yl]-methyl-amino]ethyl]-1,2,4-triazol-1-yl]pyridine-3-carbonitrile]
≥ 80%: percent control (mortality, anti-feedant effect or growth inhibition) at 200 ppm [1] | percent effect (mortality or growth inhibition) at 200 ppm [2] | percent effect (mortality or growth inhibition) at 200 ppm [3]

C[C@H](Nc1nnc2c(C(F)(F)F)cc(C(F)(F)F)cn12)c1ncnn1-c1ccc(C#N)cn1 [Compound P2, 6-[5-[(1S)-1-[[6,8-bis(trifluoromethyl)-[1,2,4]triazolo[4,3-a]pyridin-3-yl]amino]ethyl]-1,2,4-triazol-1-yl]pyridine-3-carbonitrile]
≥ 80%: percent control (mortality, anti-feedant effect or growth inhibition) at 200 ppm [1] | percent control (mortality, anti-feedant effect or growth inhibition) at 200 ppm [4] | percent effect (mortality or growth inhibition) at 200 ppm [2] | percent effect (mortality or growth inhibition) at 200 ppm [3]

CC(Nc1nnc2c(C(F)(F)F)cc(C(F)(F)F)cn12)c1ncnn1-c1ccc(C#N)cn1 (stereo not shown) [Compound P3, 6-[5-[1-[[6,8-bis(trifluoromethyl)-[1,2,4]triazolo[4,3-a]pyridin-3-yl]amino]ethyl]-1,2,4-triazol-1-yl]pyridine-3-carbonitrile]
≥ 80%: percent control (mortality, anti-feedant effect or growth inhibition) at 200 ppm [1] | percent control (mortality, anti-feedant effect or growth inhibition) at 200 ppm [4] | percent effect (mortality or growth inhibition) at 200 ppm [2] | percent effect (mortality or growth inhibition) at 200 ppm [3]

CC(Nc1nnc2c(C(F)(F)F)cc(C(F)(F)F)cn12)c1ncnn1-c1ccc(Br)cn1 (stereo not shown) [Compound P4, N-[1-[2-(5-bromo-2-pyridyl)-1,2,4-triazol-3-yl]ethyl]-6,8-bis(trifluoromethyl)-[1,2,4]triazolo[4,3-a]pyridin-3-amine]
≥ 80%: percent control (mortality, anti-feedant effect or growth inhibition) at 200 ppm [1] | percent control (mortality, anti-feedant effect or growth inhibition) at 200 ppm [4] | percent effect (mortality or growth inhibition) at 200 ppm [2] | percent effect (mortality or growth inhibition) at 200 ppm [3]

CC(Nc1nnc2c(C(F)(F)F)cc(Br)cn12)c1ncnn1-c1ccc(Br)cn1 (stereo not shown) [Compound P5, 6-bromo-N-[1-[2-(5-bromo-2-pyridyl)-1,2,4-triazol-3-yl]ethyl]-8-(trifluoromethyl)-[1,2,4]triazolo[4,3-a]pyridin-3-amine]
≥ 80%: percent control (mortality, anti-feedant effect or growth inhibition) at 200 ppm [1] | percent effect (mortality or growth inhibition) at 200 ppm [2] | percent effect (mortality or growth inhibition) at 200 ppm [3]

CC(Nc1nnc2c(C(F)(F)F)cc(Br)cn12)c1ncnn1-c1ccc(C#N)cn1 (stereo not shown) [Compound P6, 6-[5-[1-[[6-bromo-8-(trifluoromethyl)-[1,2,4]triazolo[4,3-a]pyridin-3-yl]amino]ethyl]-1,2,4-triazol-1-yl]pyridine-3-carbonitrile]
≥ 80%: percent control (mortality, anti-feedant effect or growth inhibition) at 200 ppm [1] | percent control (mortality, anti-feedant effect or growth inhibition) at 200 ppm [4] | percent effect (mortality or growth inhibition) at 200 ppm [3]

CC(Nc1nnc2c(C(F)(F)F)cc(Br)cn12)c1ncnn1-c1ncccn1 (stereo not shown) [Compound P7, 6-bromo-N-[1-(2-pyrimidin-2-yl-1,2,4-triazol-3-yl)ethyl]-8-(trifluoromethyl)-[1,2,4]triazolo[4,3-a]pyndin-3-amine]
≥ 80%: percent control (mortality, anti-feedant effect or growth inhibition) at 200 ppm [1]

CC(Nc1nnc2c(Cl)cc(C(F)(F)F)cn12)c1ncnn1-c1ccc(C#N)cn1 (stereo not shown) [Compound P8, 6-[5-[1-[[8-chloro-6-(trifluoromethyl)-[1,2,4]triazolo[4,3-a]pyridin-3-yl]amino]ethyl]-1,2,4-triazol-1-yl]pyridine-3-carbonitrile]
≥ 80%: percent control (mortality, anti-feedant effect or growth inhibition) at 200 ppm [1] | percent control (mortality, anti-feedant effect or growth inhibition) at 200 ppm [4] | percent effect (mortality or growth inhibition) at 200 ppm [2] | percent effect (mortality or growth inhibition) at 200 ppm [3]

CC(Nc1nnc2c(Cl)cc(C(F)(F)F)cn12)c1ncnn1-c1ncccn1 (stereo not shown) [Compound P9, 8-chloro-N-[1-(2-pyrimidin-2-yl-1,2,4-triazol-3-yl)ethyl]-6-(trifluoromethyl)-[1,2,4]triazolo[4,3-a]pyridin-3-amine]
≥ 80%: percent control (mortality, anti-feedant effect or growth inhibition) at 200 ppm [1] | mortality at 500 ppm [5]
